Data from patent US20150359794A1, “IMPAIRMENT OF THE LARGE RIBOSOMAL SUBUNIT PROTEIN RPL24 BY DEPLETION OR ACETYLATION” (Buck Institute for Research on Aging, priority 2014, published 2015).

Assays:
ribosomal proteins = test: Mass spectrometry of acetylated ribosomal proteins in polysome pellets; format: cell-based, human; conditions: SKBR3 cells, TSA 1 μM, 2 h or 6 h
Protocol: Previous studies have shown that pan-inhibitors of class I and II histone deacetylases, like TSA, can rapidly destabilize a number of oncogenic transcripts including HER2 in a cycloheximide-dependent manner (FIG. 9). […] Thus, SKBR3 cells were treated with TSA to evaluate polysome protein acetylation and determine if, similar to RPL24 depletion, histone deacetylase inhibition can affect ribosome assembly dynamics. To detect early (2 h) ribosome or polysome acetylation following histone deacetylase inhibition treatment (1 μM TSA), SKBR3 polysomes were isolated using a discontinuous sucrose gradient as previously described. […]
To prepare polysome samples for mass spectrometry, cells are treated with a histone deacetylase inhibitor and polysome pellets are prepared using a discontinuous sucrose gradient as described above. Protein concentration is determined using the Pierce BCA Protein Assay Kit (Thermo Scientific) and equal amount of protein are trypsin digested. […]
Three biological replicates of polysome or 60S samples are then analyzed by LC-MS/MS using a quadrupole time-of-flight (QqTOF) TripleTOF 5600 mass spectrometer (AB SCIEX, Dublin, Calif.) coupled to an Eksigent (Dublin, Calif.) nanoLC Ultra, 2D plus. […] Quantitative data analysis of acetyl-lysine peptides is performed by integration of selected molecular ion intensities using Skyline MS1 Filtering as previously described. […]

RPL24 = test: LC-MS/MS of RPL24 lysine acetylation (K27, K93) on 60S subunits and polysomes; format: cell-based, human; conditions: SKBR3 cells, TSA 1 μM, 2 h
Protocol: Mass spectrometry studies were performed to identify sites of lysine (K) acetylation within RPL24 induced by histone deacetylase inhibition. Continuous and discontinuous sucrose gradient fractionations were performed to isolate 60S subunits and total polysomes respectively. Polyacrylamide gel electrophoresis was then performed on 60S and polysome samples and RPL24-containing bands were excised, trypsin digested, and subjected to mass spectrometry (LC-MS/MS) (FIG. 6a). Among several detected acetylated RPL24 peptides, two were increased by TSA treatment; TDGKacVFQFLNAK (acetyl-K27) (SEQ ID NO:1) and AITGASLADIM*AKacR (acetyl-K93) (SEQ ID NO:2), where the internal lysines in both peptides are N-acetylated (Kac). As the MS experiments of the 60S polysome were performed after in-gel digestion the methionine residue of the second peptide was predominantly oxidized (M*=M+16), as commonly observed during SDS PAGE processing. In independent, in-solution digestion experiments, the corresponding non-oxidized form of acetylated peptide AITGASLADIMAKacR (SEQ ID NO:3) with correlating MS/MS fragmentation pattern was identified. Representative spectra are shown for TDGKacVFQFLNAK (acetyl-K27) (SEQ ID NO:1) and AITGASLADIM*AKacR (acetyl-K93) (SEQ ID NO:2)) (FIG. 11a,b). In 3 biological replicate experiments, the amount of K27-acetylated RPL24, normalized to total protein concentration within the 60S subunit, was increased at least 2-fold within 2 h of TSA treatment. […] Given the proximity of the T. thermophilia RPL24 K26 site (that resides in a homologous region to human K27) to eIF6 (FIG. 7a), these findings implicate involvement of the TSA induced acetylation of RPL24 at K27 in preventing 40S-60S subunit joining and 60S retention of eIF6.
To prepare polysome samples for mass spectrometry, cells are treated with a histone deacetylase inhibitor and polysome pellets are prepared using a discontinuous sucrose gradient as described above. Protein concentration is determined using the Pierce BCA Protein Assay Kit (Thermo Scientific) and equal amount of protein are trypsin digested. Acetyl-lysine immunoprecipitations are carried out on resultant peptides using an antibody from Cell Signaling Technology. Acetyl-proteins are then eluted, extracted, and desalted.
To determine the acetylation status of 60S subunit proteins, cells are treated with histone deacetylase inhibitor and polysome profiles are performed as described above. The four fractions representing the 60S subunit are identified via western blots for Rack1 and RPL24. […]
Three biological replicates of polysome or 60S samples are then analyzed by LC-MS/MS using a quadrupole time-of-flight (QqTOF) TripleTOF 5600 mass spectrometer (AB SCIEX, Dublin, Calif.) coupled to an Eksigent (Dublin, Calif.) nanoLC Ultra, 2D plus. […]

In the case of CC(/C=C/C(=O)NO)=C\[C@@H](C)C(=O)c1ccc(N(C)C)cc1 [TSA, trichostatin-A], the “number of ribosomal proteins with at least a two-fold induction in acetylation” value (ribosomal proteins) is reported as 15, the “RPL24 K93 acetylation within the 60S subunits” value (RPL24) is reported as “not significantly changed” and the “induction of K93 acetylation within RPL24 associated with polysomes” value (RPL24) is reported as 2.5 fold. For the same compound, the “induction of RPL24 K27 acetylation within polysomes” value (RPL24) was “no significant induction” and the “increase of K27-acetylated RPL24 within the 60S subunit, normalized to total protein” value (RPL24; 3 biological replicates) was “at least 2 fold”.
